Read-outs that look alike come from different tables or passages of the source.
Experiments:
human recombinant PDE4 = molecular target: T1, human recombinant PDE4 (Homo sapiens, UniProt Q07343); experiment: Inhibition of human recombinant PDE4 (charcoal separation PDE assay); assay type: biochemical
T1 construct: made in house; host or cells: Saccharomyces cerevisiae BJ2-54
Procedure: The compounds of structural formula (I) were tested for an ability to inhibit PDE4. […] The IC50 value for compounds of structural formula (I) were determined using human recombinant PDE4.
Phosphodiesterase activity of the preparations was determined as follows. […] In this assay, PDE activity converts [32P]cAMP or [32P]cGMP to the corresponding [32P]5′-AMP or [32P]5′-GMP in proportion to the amount of PDE activity present. The [32P]5′-AMP or [32P]5′-GMP then was quantitatively converted to free [32P]phosphate and unlabeled adenosine or guanosine by the action of snake venom 5′-nucleotidase. […] The assay was performed at 30° C. in a 100 μL reaction mixture containing (final concentrations) 40 mM Tris HCl (pH 8.0), 1 μM ZnSO4, 5 mM MgCl2, and 0.1 mg/mL bovine serum albumin (BSA). Alternatively, in assays assessing PDE1-specific activity, incubation mixtures further incorporated the use of 0.1 mM CaCl2 and 10 μg/mL calmodulin. PDE enzyme was present in quantities that yield <30% total hydrolysis of substrate (linear assay conditions). The assay was initiated by addition of substrate (1 mM [32P]cAMP or cGMP), and the mixture was incubated for 12 minutes. Seventy-five (75) μg of Crotalus atrox venom then was added, and the incubation was continued for 3 minutes (15 minutes total). The reaction was stopped by addition of 200 μL of activated charcoal (25 mg/mL suspension in 0.1 M NaH2PO4, pH 4). After centrifugation (750×g for 3 minutes) to sediment the charcoal, a sample of the supernatant was taken for radioactivity determination in a scintillation counter and the PDE activity was calculated.

[1] = test system: TNFα release from human peripheral blood lymphocytes; experiment: Lipopolysaccharide-stimulated TNFα release from human peripheral blood lymphocytes; assay type: cell-based; conditions: Lymphocyte
Procedure: The compounds of structural formulae (I) and (II) were tested for an ability to reduce TNFα secretions in human peripheral blood lymphocytes. The ability of a compound to reduce TNFα secretion is related to the EC50 value for the compound (i.e., the effective concentration of the compound capable of inhibiting 50% of the total TNFα).
To assess the ability of a compound to reduce TNFα secretion in human peripheral blood lymphocytes (PBL), the following tests were performed.
Heparinized blood (approximately 30 mL) drawn from human volunteers was mixed 1:1 with Dulbecco's modified phosphate-buffered saline. This mixture was mixed 1:1 with HISTOPAQUE® and centrifuged at 1,500 rpm at room temperature without braking in the swinging bucket of a Beckman model TJ6 centrifuge. Erythrocytes were centrifuged to the bottom of the tubes, and serum remained at the surface of the tubes. A layer containing lymphocytes sedimented between the serum and HISTOPAQUE® layers, and was removed by aspiration to a fresh tube. The cells were quantified and adjusted to […] and a 100 μL aliquot is placed into the wells of a 96 well plate. Test compounds and RPMI media (Gibco/BRL Life Sciences) are added to each of the wells 15 minutes prior to addition of bacterial LPS ([…]). The mixture was allowed to incubate for 20 hours at 37° C. in a humidified chamber. The cells then were separated by centrifuging at 800 rpm for 5 minutes at room temperature. An aliquot of 180 μL of supernatant was transferred to a new plate for determination of TNFα concentration. TNFα protein in the cell supernatant fluids was measured using a commercially available enzyme-linked immunosorbent assay (ELISA) (CYTOSCREEN® Immunoassay Kit from Biosource International).
(§1) The cell-based assay provided the following results for various compounds of the present invention. The EC50. values (i.e., effective concentration of the compound capable of inhibiting 50% of the total TNFα) illustrate the ability of the present compounds to inhibit LPS-stimulated TNFα release from human PBL.
as §1, with “various pyrazole” for “various”, “EC50” for “EC50.”, “concentrations” for “concentration”, “peripheral blood lymphocytes.” for “PBL.”

recombinant human PDE4 = conditions: background, reported value; read-out: reported IC50 with respect to recombinant human PDE4; cited from earlier work
[2] = structure table, read-out: PDE4 IC50
[3] = table with PBL/TNFα, read-out: PDE4 IC50
[4] = Homo sapiens, read-out: PBL/TNFα EC50 (μM)
[5] = PDE4 IC50 (μM), structure table
[6] = PDE4 IC50 (μM), table with PBL/TNFα
[7] = LPS-stimulated TNFα release from human PBL, read-out: PBL/TNFα EC50

T1 sequence (Q07343 whole entry): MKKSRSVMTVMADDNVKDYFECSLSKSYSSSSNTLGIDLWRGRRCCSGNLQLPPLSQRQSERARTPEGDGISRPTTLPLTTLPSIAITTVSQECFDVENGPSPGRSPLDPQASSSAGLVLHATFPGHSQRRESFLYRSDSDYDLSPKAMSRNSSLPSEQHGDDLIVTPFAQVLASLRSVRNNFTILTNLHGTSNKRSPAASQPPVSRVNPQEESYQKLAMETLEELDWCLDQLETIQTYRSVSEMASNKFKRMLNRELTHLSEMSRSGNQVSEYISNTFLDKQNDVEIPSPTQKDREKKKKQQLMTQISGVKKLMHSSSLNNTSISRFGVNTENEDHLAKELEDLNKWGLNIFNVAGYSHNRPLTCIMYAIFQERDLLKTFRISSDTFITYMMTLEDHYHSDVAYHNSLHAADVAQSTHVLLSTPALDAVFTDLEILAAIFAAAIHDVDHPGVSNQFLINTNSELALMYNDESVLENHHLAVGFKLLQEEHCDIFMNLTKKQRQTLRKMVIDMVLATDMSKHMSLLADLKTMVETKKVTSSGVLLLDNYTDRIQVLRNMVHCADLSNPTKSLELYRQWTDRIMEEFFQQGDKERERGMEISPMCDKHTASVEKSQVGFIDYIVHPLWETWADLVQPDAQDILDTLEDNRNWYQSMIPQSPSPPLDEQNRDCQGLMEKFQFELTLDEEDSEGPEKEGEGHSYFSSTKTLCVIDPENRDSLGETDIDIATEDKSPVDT

Row | SMILES | IC50 (human recombinant PDE4; [2]) [µM] | further results
1 | CCOC(=O)c1c(C)nn(-c2ncccc2N)c1C [Example 12, 1-(3-aminopyridin-2-yl)-3,5-dimethyl-1H-pyrazole-4-carboxylic acid ethyl ester] | 0.94 | IC50 (human recombinant PDE4; [3]): 0.94 µM; EC50 [1, 4]: 2.6 µM
2 | CCOC(=O)c1c(C)nn(-c2cccc(N)c2)c1C [Example 9, 1-(3-aminophenyl)-3,5-dimethyl-1H-pyrazole-4-carboxylic acid ethyl ester] | 1.03 | IC50 (human recombinant PDE4; [3]): 1 µM; EC50 [1, 4]: 1.9 µM
3 | Cc1nn(-c2ccccc2)c(C)c1C(=O)Nc1ccccc1 [Example 36, 3,5-Dimethyl-1-phenyl-1H-pyrazole-4-carboxylic acid phenylamide] | 142 | 
4 | CCOC(=O)c1c(C)nn(-c2ccc(C)cc2)c1C [Example 4, 3,5-dimethyl-1-p-tolyl-1H-pyrazole-4-carboxylic acid ethyl ester] | 3.94 | 
5 | CCOC(=O)c1c(C)nn(-c2ccc([N+](=O)[O-])cn2)c1C [Example 17, 3,5-dimethyl-1-(5-nitropyridin-2-yl)-1H-pyrazole-4-carboxylic acid ethyl ester] | 57.5 | 
6 | CCOC(=O)c1c(C)nn(-c2ccc([N+](=O)[O-])cn2)c1C [Example 7, 3,5-dimethyl-1-(5-nitropyridin-2-yl)-1H-pyrazole-4-carboxylic acid ethyl ester] |  | IC50 (human recombinant PDE4; read-out: PDE4 IC50, structure table): 12.9 µM
7 | CCOC(=O)c1c(C)nn(-c2ccc(NCc3ccccc3O)cc2)c1C [Example 40] |  | IC50 (human recombinant PDE4; [5]): 0.92 µM; IC50 (human recombinant PDE4; [6]): 0.92 µM; EC50 [1, 4]: 6.2 µM
8 | COC(=O)N1CC(c2ccc(OC)c(OC3CCCC3)c2)C(C)(C(C)=O)C1 (centres unmarked) |  | IC50 (recombinant human PDE4): ~0.002 µM
9 | Cc1nn(-c2ncccc2[N+](=O)[O-])c(C)c1C(=O)O [Example 16, 3,5-dimethyl-1-(3-nitropyridin-2-yl)-1H-pyrazole-4-carboxylic acid] | 47.4 | 
10 | CCOC(=O)c1c(C)nn(-c2ccccc2)c1C [Example 3, 3,5-dimethyl-1-phenyl-1H-pyrazole-4-carboxylic acid ethyl ester] | 0.31 | IC50 (human recombinant PDE4; [3]): 0.31 µM; EC50 [1, 4]: 1.8 µM
11 | COC(=O)c1cnn(-c2ccccn2)c1C(C)=O [Example 37, 5-Acetyl-1-pyridin-2-yl-1H-pyrazole-4-carboxylic acid methyl ester] | 181 | 
12 | CCOC(=O)c1c(C)nn(-c2ccc(N=Cc3ccc(OC)cc3)cc2)c1C [Example 39] |  | IC50 (human recombinant PDE4; [5]): 0.69 µM; IC50 (human recombinant PDE4; [6]): 0.69 µM; EC50 [1, 7]: 1.3 µM
13 | Cc1nn(-c2ccccc2)c(C)c1C(=O)Nc1ccncc1 [Example 34, 3,5-Dimethyl-1-phenyl-1H-pyrazole-4-carboxylic acid pyridin-4-ylamide] | 97.9 | 
14 | CCOC(=O)c1c(C)nn(C2CCCCC2)c1C [Example 19, 1-cyclohexyl-3,5-dimethyl-1H-pyrazole-4-carboxylic acid ethyl ester] | 0.053 | IC50 (human recombinant PDE4; [3]): 0.053 µM; EC50 [1, 7]: 0.52 µM
15 | COC(=O)c1cnn(-c2cc(C(F)(F)F)cc(C)n2)c1C(C)=O [Example 33, 5-Acetyl-1-(6-methyl-4-trifluoromethylpyridin-2-yl)-1H-pyrazole-4-carboxylic acid methyl ester] | 88.2 | 
16 | CCOC(=O)c1cn(-c2ccccn2)nc1C [Example 26, 3-methyl-1-pyridin-2-yl-1H-pyrazole-4-carboxylic acid ethyl ester] | 3.59 | 

Row | SMILES | IC50 (human recombinant PDE4; [2]) [µM] | further results
17 | COC(=O)c1cnn(-c2cc(C(F)(F)F)cc(C)n2)c1C(=O)C=CN(C)C [Example 29, 5-(3-Dimethylaminoacryloyl)-1-(6-methyl-4-trifluoromethylpyridin-2-yl)-1H-pyrazole-4-carboxylic acid methyl ester] | 37 | 
18 | CCOC(=O)c1c(C)nn(-c2ccc(NC(=O)C(C)(C)C)cc2)c1C [Example 14, 1-[4-(2,2-dimethylpropionylamino)phenyl]-3,5-dimethyl-1H-pyrazole-4-carboxylic acid ethyl ester] | 6.39 | 
19 | CCOC(=O)c1c(C)nn(-c2ccccc2N)c1C [Example 6, 3,5-dimethyl-1-(2-aminophenyl)-1H-Pyrazole-4-carboxylic acid ethyl ester] | 1.13 | 
20 | CCOC(=O)c1c(C)nn(-c2ncccc2[N+](=O)[O-])c1C [Example 10, 3,5-dimethyl-1-(3-nitropyridin-2-yl)-1H-pyrazole-4-carboxylic acid ethyl ester] | 0.2 | IC50 (human recombinant PDE4; [3]): 0.2 µM; EC50 [1, 7]: 2 µM
21 | CCOC(=O)c1c(C)nn(-c2ccc(N=Cc3ccccc3O)cc2)c1C [Example 38] |  | IC50 (human recombinant PDE4; [5]): 0.4 µM; IC50 (human recombinant PDE4; [6]): 0.4 µM; EC50 [1, 4]: 1 µM
22 | Cc1nn(-c2ccc(N)cc2)c(C)c1C(=O)O [Example 18, 1-(4-aminophenyl)-3,5-dimethyl-1H-pyrazole-4-carboxylic acid] | 175 | 
23 | CCOC(=O)c1cnn(-c2ccc([N+](=O)[O-])cc2)c1C(F)(F)F [Example 30, 1-(4-Nitrophenyl)-5-trifluoromethyl-1H-pyrazole-4-carboxylic acid ethyl ester] | 45.4 | 
24 | CCOC(=O)c1c(C)nn(-c2ccc(N)cc2)c1C [Example 11, 3,5-dimethyl-1-(4-aminophenyl)-1H-pyrazole-4-carboxylic acid ethyl ester] | 0.3 | IC50 (human recombinant PDE4; [3]): 0.3 µM; EC50 [1, 7]: 1 µM
25 | CCOC(=O)c1c(C)nn(-c2ccccc2[N+](=O)[O-])c1C [Example 5, 3,5-dimethyl-1-(2-nitrophenyl)-1H-pyrazole-4-carboxylic acid ethyl ester] | 0.65 | 
26 | Cc1nn(-c2ccccc2)c(C)c1C=O [Example 28, 3,5-Dimethyl-1-phenyl-1H-pyrazole-4-carboxaldehyde] | 18 | 
27 | CCOC(=O)c1c(C)nn(-c2ccc(NS(=O)(=O)c3ccc(OC)cc3)cc2)c1C [Example 13, 1-[4-(4-methoxybenzenesulfonylamino)phenyl]-3,5-dimethyl-1H-pyrazole-4-carboxylic acid ethyl ester] |  | IC50 (human recombinant PDE4; [5]): 1.88 µM
28 | CCOC(=O)c1cnn(-c2ccc(N)cc2)c1C(F)(F)F [Example 27, 1-(4-aminophenyl)-5-trifluoromethyl-1H-pyrazole-4-carboxylic acid ethyl ester] | 3.61 | 
29 | CCOC(=O)c1cnn(-c2ncc(C(F)(F)F)cc2Cl)c1C [Example 31, 1-(3-Chloro-5-trifluoromethylpyridin-2-yl)-5-methyl-1H-pyrazole-4-carboxylic acid ethyl ester] | 63 | 
30 | C/C(=N\O)c1cnn(-c2cc(C(F)(F)F)cc(C)n2)c1C [Example 32, 1-[5-Methyl-1-(6-methyl-4-trifluoromethyl-pyridin-2-yl)-1H-pyrazol-4-yl]-ethanone oxime] | 67.4 | 
31 | Cc1ccc(OC(=O)c2c(C)nn(-c3ccccc3)c2C)cc1 [Example 15, 3,5-dimethyl-1-phenyl-1H-pyrazole-4-carboxylic acid p-tolyl ester] | 36.5 | 
32 | CCOC(=O)c1cnn(-c2c(Cl)cc(Cl)cc2Cl)c1COC [Example 35, 5-Methoxymethyl-1-(2,4,6-trichlorophenyl)-1H-pyrazole-4-carboxylic acid ethyl ester] | 131 | 

Reference: patent US7087634B2, “Cyclic AMP-specific phosphodiesterase inhibitors” (ICOS Corporation, priority 1999, dated 2006)
